Experimental findings from ChEMBL document CHEMBL1201862, “PubChem BioAssay data set” (2004) are described below.

Test systems include A549; ACHN; COLO 205; EKVX; HCC 2998; HCT-15; HOP-92; KM12; M19-MEL; RPMI-8226; SF-268; SF-539; SK-MEL-2; SK-MEL-5; SNB-19; UACC-257; NCI-H522.
Holding throughout (test): NCI anticancer screen, dose series, 48 h

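Compound exposure: 48 hours, 5 concentrations, 96-well plates. Here, GI50 denotes the concentration required for 50% inhibition of growth.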 Active and inactive are the calls of the source. No stated cut-off is given here; in the data, active = GI50 up to about 1.1 µM and inactive = higher.

Consider `Cc1ccc(C)c(NC(=O)C(=O)C(C2C(C)CC(=O)C2CC(=O)O)[N+](=O)[O-])c1` (configuration not stated), for which the GI50 is > 100 µM (inactive) in the assay on A549; > 100 µM (inactive) with ACHN; > 100 µM (inactive) in the assay on COLO 205; > 100 µM (inactive) in the assay with EKVX; > 100 µM (inactive) with HCC 2998; > 100 µM in the assay on HCT-15. Further, the GI50 with HOP-92, in the assay on KM12, in the assay on M19-MEL, in the assay with RPMI-8226, with SF-268 and in the assay with SF-539 was > 100 µM (inactive) each time. Further, the GI50 with SK-MEL-2, in the assay on SK-MEL-5, in the assay with SNB-19 and in the assay with UACC-257 was > 100 µM (inactive) each time.
As for `NC(=O)CCC(NC(=O)Cc1ccccc1)C(=O)O.NC(CCC(=O)NC(=O)Cc1ccccc1)C(=O)O` (configuration not stated), the GI50 with A549, in the assay with COLO 205, in the assay on EKVX, in the assay on HCC 2998, with HOP-92 and in the assay with KM12 was > 8130 µM (inactive) each time. In addition, the GI50 in the assay on M19-MEL, with NCI-H522, in the assay with RPMI-8226, in the assay on SF-268, with SF-539 and in the assay on SK-MEL-2 was > 8130 µM (inactive) in each case. For the same compound, the GI50 in the assay with SK-MEL-5 and in the assay on SNB-19 was > 8130 µM (inactive) each time.
`COc1ccc2c3c(c(C(=O)c4ccccc4)oc13)CCC2`: the GI50 in the assay on A549 was > 100 µM (inactive); in the assay with ACHN, > 100 µM (inactive); with COLO 205, > 100 µM (inactive); with EKVX, > 100 µM (inactive); with HCC 2998, > 100 µM (inactive); in the assay on HCT-15 it was > 100 µM. The GI50 is < 0.01 µM (active) with HOP-92; > 100 µM (inactive) in the assay on M19-MEL; > 100 µM (inactive) in the assay with RPMI-8226; > 100 µM (inactive) in the assay on SF-539; > 100 µM (inactive) with SK-MEL-5; > 100 µM (inactive) with SNB-19. Moreover, the GI50 with UACC-257 is > 100 µM (inactive).
Take `O=C(/C=C/c1c(O)ccc2ccccc12)c1ccc([N+](=O)[O-])cc1`: the GI50 was > 95.9 µM (inactive) in the assay with A549; 22.1 µM (inactive) with ACHN; 33.1 µM (inactive) with COLO 205; 41.9 µM (inactive) with EKVX; 97.9 µM (inactive) in the assay on HCC 2998; 25.2 µM with HCT-15. Moreover, the GI50 is 16.1 µM (inactive) in the assay with HOP-92; 67.1 µM (inactive) in the assay on KM12; 18.5 µM (inactive) with M19-MEL; 17 µM (inactive) with NCI-H522; 25.9 µM (inactive) in the assay on RPMI-8226; 41.5 µM (inactive) with SF-268. Moreover, the GI50 in the assay on SF-539 is 37.8 µM (inactive); in the assay with SK-MEL-2, 33.2 µM (inactive); in the assay on SK-MEL-5, 19.4 µM (inactive); in the assay with SNB-19, > 88.9 µM (inactive); in the assay on UACC-257, 25.2 µM (inactive).
For `COC1OC(CO)C(O)C(O)C1Br` (configuration not stated), the GI50 is > 100 µM (inactive) with A549; > 100 µM (inactive) with ACHN; > 100 µM (inactive) with COLO 205; > 100 µM (inactive) in the assay on HCC 2998; > 100 µM in the assay with HCT-15; > 100 µM (inactive) in the assay with HOP-92. For the same compound, the GI50 in the assay with KM12, in the assay with M19-MEL, in the assay with NCI-H522, with RPMI-8226, in the assay on SF-268 and in the assay on SF-539 was > 100 µM (inactive) each time. Further, the GI50 with SK-MEL-5, with SNB-19 and in the assay on UACC-257 was > 100 µM (inactive) in each case.
As for `COc1ccc(C2=NC(C)(C)CO2)cc1`, the GI50 was > 100 µM (inactive) in the assay with A549; > 100 µM (inactive) with ACHN; > 100 µM (inactive) in the assay with COLO 205; > 100 µM (inactive) with EKVX; > 100 µM in the assay with HCT-15; > 100 µM (inactive) with HOP-92. For the same compound, the GI50 in the assay on KM12, in the assay with M19-MEL, in the assay on RPMI-8226, with SF-268, in the assay on SF-539 and in the assay with SK-MEL-2 was > 100 µM (inactive) throughout. In addition, the GI50 in the assay with SK-MEL-5, with SNB-19 and with UACC-257 was > 100 µM (inactive) in each case.
For the compound `O=C1COc2cc(NC(=S)Nc3ccccc3)ccc2N1`, the GI50 was > 100 µM (inactive) in the assay on A549; > 100 µM (inactive) in the assay on ACHN; > 100 µM (inactive) in the assay with COLO 205; > 100 µM (inactive) with EKVX; > 100 µM (inactive) with HCC 2998; > 100 µM in the assay with HCT-15. Moreover, the GI50 with HOP-92, in the assay on KM12, in the assay with M19-MEL, in the assay with NCI-H522, with RPMI-8226 and with SF-268 was > 100 µM (inactive) in each case. Moreover, the GI50 with SF-539, in the assay on SK-MEL-2, with SK-MEL-5, in the assay with SNB-19 and in the assay with UACC-257 was > 100 µM (inactive) each time.
Take `Cc1ccc(S(=O)(=O)N2CCC2c2ccccc2)cc1` (configuration not stated): the GI50 was 67.5 µM (inactive) in the assay on A549; > 100 µM (inactive) in the assay with ACHN; > 100 µM (inactive) with COLO 205; 64 µM (inactive) in the assay with EKVX; > 100 µM (inactive) in the assay with HCC 2998; > 100 µM in the assay with HCT-15. For the same compound, the GI50 with HOP-92 is 10.1 µM (inactive); in the assay with KM12 it was 82 µM (inactive); in the assay with M19-MEL it was > 100 µM (inactive); with NCI-H522 it was 74 µM (inactive); in the assay on RPMI-8226, 66.2 µM (inactive); in the assay with SF-268, 82.2 µM (inactive). For the same compound, the GI50 in the assay with SF-539 is > 100 µM (inactive); with SK-MEL-2, > 100 µM (inactive); in the assay with SK-MEL-5, 42 µM (inactive); in the assay on SNB-19, 68.7 µM (inactive); in the assay with UACC-257, 47.3 µM (inactive).
Take `Cn1c(C2CC(C)(C)c3c2c2ccccc2n3C)cc2ccccc21` (configuration not stated): the GI50 was > 304 µM (inactive) in the assay on A549; > 304 µM (inactive) with ACHN; > 304 µM (inactive) in the assay on COLO 205; > 304 µM (inactive) with EKVX; > 304 µM (inactive) with HCC 2998; > 304 µM in the assay with HCT-15. The GI50 with HOP-92 is 40.9 µM (inactive); with KM12, > 304 µM (inactive); with M19-MEL, > 304 µM (inactive); in the assay on NCI-H522, 72.8 µM (inactive); in the assay with RPMI-8226 it was 118 µM (inactive); with SF-268, > 304 µM (inactive). The GI50 is 79.4 µM (inactive) in the assay with SF-539; > 304 µM (inactive) in the assay with SK-MEL-2; > 304 µM (inactive) with SK-MEL-5; > 304 µM (inactive) in the assay on SNB-19; 265 µM (inactive) in the assay with UACC-257.
For the compound `O=C1C2=C(c3ccccc31)C(c1ccc(F)cc1)N1C(=O)CCSC1=N2` (configuration not stated), the GI50 in the assay with A549 is > 100 µM (inactive); in the assay on ACHN it was > 100 µM (inactive); with COLO 205, > 100 µM (inactive); in the assay with EKVX it was > 100 µM (inactive); in the assay with HCC 2998, > 100 µM (inactive); in the assay on HCT-15, 98.4 µM. Besides, the GI50 is 24.7 µM (inactive) in the assay on HOP-92; 55.1 µM (inactive) in the assay on KM12; > 100 µM (inactive) with M19-MEL; 72.8 µM (inactive) with NCI-H522; 49.2 µM (inactive) with RPMI-8226; > 100 µM (inactive) with SF-268. Also, the GI50 is > 100 µM (inactive) with SF-539; > 100 µM (inactive) in the assay on SK-MEL-2; 60.5 µM (inactive) in the assay with SK-MEL-5; > 100 µM (inactive) in the assay with SNB-19; > 100 µM (inactive) in the assay on UACC-257.
In the case of `COc1ccc(/C(Cl)=C(\C=N/O)c2ccc(OC)c(OC)c2)cc1OC`, the GI50 with A549 was > 100 µM (inactive); with ACHN, > 100 µM (inactive); in the assay with COLO 205, > 100 µM (inactive); in the assay on EKVX, > 100 µM (inactive); in the assay on HCC 2998, > 100 µM (inactive); in the assay on HCT-15, 82 µM. The GI50 is 63.4 µM (inactive) in the assay with HOP-92; > 100 µM (inactive) in the assay with KM12; > 100 µM (inactive) in the assay on M19-MEL; > 100 µM (inactive) in the assay with NCI-H522; > 100 µM (inactive) in the assay on RPMI-8226; > 100 µM (inactive) in the assay with SF-268. Also, the GI50 in the assay on SF-539, in the assay with SK-MEL-2, with SK-MEL-5, in the assay with SNB-19 and in the assay on UACC-257 was > 100 µM (inactive) in each case.
Regarding `CC/C=C1\N=C(c2ccc(Cl)cc2)OC1=O`, the GI50 was > 100 µM (inactive) in the assay with A549; > 100 µM (inactive) in the assay with ACHN; > 100 µM (inactive) with COLO 205; > 100 µM (inactive) with EKVX; > 100 µM (inactive) in the assay with HCC 2998; > 100 µM in the assay with HCT-15. Besides, the GI50 in the assay with HOP-92, in the assay with KM12, in the assay on M19-MEL, in the assay with NCI-H522, with RPMI-8226 and in the assay on SF-268 was > 100 µM (inactive) each time. The GI50 in the assay on SF-539, with SK-MEL-2, in the assay with SNB-19 and in the assay with UACC-257 was > 100 µM (inactive) throughout.
As to `Nc1nc(SCCNC(=O)CCc2ccc(O)cc2)nc2c1ncn2C1OC(CO)C(O)C1O` (configuration not stated), the GI50 is > 203 µM (inactive) in the assay with A549; > 203 µM (inactive) in the assay on ACHN; > 203 µM (inactive) in the assay with COLO 205; > 203 µM (inactive) in the assay with HCC 2998; > 203 µM in the assay on HCT-15; > 203 µM (inactive) in the assay with HOP-92. Further, the GI50 with KM12, in the assay on M19-MEL, in the assay with NCI-H522, in the assay on RPMI-8226, with SF-268 and in the assay with SF-539 was > 203 µM (inactive) throughout. Moreover, the GI50 in the assay on SK-MEL-2, in the assay with SK-MEL-5, with SNB-19 and in the assay with UACC-257 was > 203 µM (inactive) throughout.
